Assays:
Type in all cases: cell-based
[1] = test system: A549 human non-small cell lung cancer cells with high expression of KRAS G12S; assay: Cell Titer-Glo cell viability, A549 cells (72 h)
From the text: (§1) Effect Example 2: Pharmacodynamic Assay 2 (Determination of the efficacy of the compounds of the present disclosure on HCT116 human colon cancer cells with high expression of KRAS G13D and A549 human non-small cell lung cancer cells with high expression of KRAS G12S)
(§2) The following method was used to determine the effects of the compounds of the present disclosure on tumor cell proliferation.
(§3) For KRAS G13D subtype, HCT116 human colon cancer cell was used. For KRAS G12S subtype, A549 human non-small cell lung cancer cell was used. The efficacy of the compounds in inhibiting cancer cell viability was determined. HCT116 cells or A549 cells were cultured in a DMEM medium containing 10% fetal bovine serum, 100 U penicillin and […] streptomycin. The cells were cultured in an incubator with 5% CO2 at 37° C. Cancer cell viability was evaluated by determining the content of ATP with Cell Titer-Glo® kit (Luminescent Cell Viability Assay kit, please refer to the manufacturer's instructions for use) and evaluating the inhibition of cell growth.
(§4) The experimental method was proceeded in accordance with the steps in the instructions for the kit, and was described briefly as follows. The test compounds were first dissolved in DMSO to prepare stock solutions, and then the stock solutions were subjected to gradient dilution with the culture media of the corresponding cells, thereby preparing test samples. The final concentrations of the compounds were in the range of 30 μM to 0.01 nM. Tumor cells in logarithmic growth phase were seeded into a 96-well cell culture plate at an appropriate density. After the cell culture plate was left overnight in an incubator with 5% CO2 at 37° C., the test compound samples were added thereto and then the cells were further cultured for 72 hours. After the incubation was complete, an appropriate volume of Cell Titer-Glo® reagent was added into each well, and the cells were incubated at 37° C. for 1 to 4 hours. Then, the […] was read on a microplate reader. The percentage inhibition rates of the compounds at each concentration point were calculated by comparing the absorbance values of the sample wells with that of the control group (0.3% DMSO), and then non-linear regression analysis of the concentration of the compound vs inhibition rate was performed by using GraphPad Prism 5 software, thereby obtaining IC50 values indicating the inhibitory effects of the compounds on cell proliferation.

[2] = test system: HCT116 human colon cancer cells with high expression of KRAS G13D; assay: Cell Titer-Glo cell viability, HCT116 cells (72 h); conditions: HCT-116
From the text: as §1, §2, §3, §4

[3] = test system: NCI-H358 human non-small cell lung cancer cell with KRAS G12C mutation; assay: Cell Titer-Glo cell viability, NCI-H358 cells (72 h)
From the text: Effect Example 1: Pharmacodynamic Assay 1 (Determination of the efficacy of the compounds of the present disclosure on NCI-H358 human non-small cell lung cancer cell with KRAS G12C mutation)
The following method was used to determine the effect of the compounds of the present disclosure on tumor cell proliferation.
as §3, with “For the” for “For”, “G12C” for “G13D”, “NCI-H358” for “HCT116 human colon cancer cell was used. For KRAS G12S subtype, A549 human”, “cells with KRAS G12C mutation were used to determine the” for “cell was used. The”, “viability. NCI-H358” for “viability was determined. HCT116 cells or A549”
as §4, with “reader.” for “reader. The percentage inhibition rates of the compounds at each concentration point were calculated by comparing the absorbance values of the sample wells with that of the control group (0.3% DMSO), and then non-linear regression analysis of the concentration of the compound vs inhibition rate was performed by using GraphPad Prism 5 software, thereby obtaining IC50 values indicating the inhibitory effects of the compounds on cell proliferation.”

[4] = Homo sapiens, NCI-H358, 72 h, numeric values
[5] = Homo sapiens, NCI-H358, 72 h, class symbols

C=CC(=O)N1CCN(c2ncnc3c(F)c(-c4c(O)cccc4F)c(Cl)cc23)CC1 [ARS-1620, reference compound]
IC50 [1]: > 3000 nM | IC50 [2]: > 3000 nM | IC50 ([3]; Homo sapiens, numeric values): 226 nM

C=CC(=O)N1CCN(c2c(C#N)c(=O)n(-c3ccccc3C(C)C)c3cc(-c4c(C)ccc5[nH]ncc45)c(Cl)cc23)CC1 [Compound I-1]
IC50 [1]: > 3000 nM | IC50 [2]: > 3000 nM | IC50 [3, 4]: 1170 nM

C=CC(=O)N1CCN(c2c(C#N)c(=O)n(-c3ccccc3C(C)C)c3cc(-c4c(C)ccc5[nH]ncc45)c(Cl)cc23)[C@@H](C)C1 [Compound I-2-1]
IC50 [1]: > 3000 nM | IC50 [2]: > 3000 nM | IC50 [3, 4]: 1150 nM

C=CC(=O)N1CCN(c2c(C#N)c(=O)n(-c3ccccc3C(C)C)c3cc(-c4cc(F)ccc4O)c(Cl)cc23)[C@@H](C)C1 [Compound I-70]
IC50 [3, 5]: < 100 nM

C=CC(=O)N1CCN(c2c(C#N)c(=O)n(-c3ccccc3C(C)C)c3cc(-c4cccc(O)c4F)c(Cl)cc23)[C@@H](C)C1 [Compound I-71]
IC50 [3, 5]: 100 to 1000 nM

C=CC(=O)N1CCN(c2c(C#N)c(=O)n(-c3ccccc3C(C)C)c3cc(-c4ccc(F)cc4O)c(Cl)cc23)[C@@H](C)C1 [Compound I-72]
IC50 ([3]; class symbols): < 100 nM

C=CC(=O)N1CCN(c2c(C#N)c(=O)n(-c3ccccc3C(C)C)c3cc(-c4cc(O)ccc4F)c(Cl)cc23)[C@@H](C)C1 [Compound I-73]
IC50 [3, 5]: 100 to 1000 nM

C=CC(=O)N1CCN(c2c(C#N)c(=O)n(-c3ccccc3C(C)C)c3cc(-c4ccc5[nH]ncc5c4)c(Cl)cc23)[C@@H](C)C1 [Compound I-74]
IC50 [3, 5]: > 1000 nM

C=CC(=O)N1CCN(c2c(C#N)c(=O)n(-c3ccccc3C(C)C)c3cc(-c4ccccc4C4CC4)c(Cl)cc23)[C@@H](C)C1 [Compound I-75]
IC50 [3, 5]: 100 to 1000 nM

C=CC(=O)N1CCN(c2c(C#N)c(=O)n(-c3ccccc3C(C)C)c3cc(-c4cc(Cl)cc(C)c4N)c(Cl)cc23)[C@@H](C)C1 [Compound I-76]
IC50 [3, 5]: < 100 nM

C=CC(=O)N1CCN(c2c(C#N)c(=O)n(-c3ccccc3C(C)C)c3cc(-c4cccc(N)c4F)c(Cl)cc23)[C@@H](C)C1 [Compound I-77]
IC50 [3, 5]: 100 to 1000 nM

C=CC(=O)N1CCN(c2c(C#N)c(=O)n(-c3ccccc3C(C)C)c3cc(-c4cc(C(F)(F)F)cc(Cl)c4N)c(Cl)cc23)[C@@H](C)C1 [Compound I-79]
IC50 [3, 5]: < 100 nM

C=CC(=O)N1CCN(c2c(C#N)c(=O)n(-c3ccccc3C(C)C)c3cc(-c4cc(C)cc(Cl)c4N)c(Cl)cc23)[C@@H](C)C1 [Compound I-80]
IC50 [3, 5]: < 100 nM

C=CC(=O)N1CCN(c2c(C#N)c(=O)n(-c3ccccc3C(C)C)c3cc(-c4cc(C)cc(C)c4N)c(Cl)cc23)[C@@H](C)C1 [Compound I-81]
IC50 [3, 5]: 100 to 1000 nM

C=CC(=O)N1CCN(c2c(C#N)c(=O)n(-c3ccccc3C(C)C)c3cc(-c4cc(Cl)ccc4N)c(Cl)cc23)[C@@H](C)C1 [Compound I-82]
IC50 ([3]; class symbols): < 100 nM

C=CC(=O)N1CCN(c2c(C#N)c(=O)n(-c3c(C)ccnc3C(C)C)c3cc(-c4c(C)ccc5[nH]ncc45)c(Cl)cc23)[C@@H](C)C1 [Compound I-83-1]
IC50 [3, 5]: < 100 nM

C=CC(=O)N1CCN(c2c(C#N)c(=O)n(-c3c(C)ccnc3C(C)C)c3cc(-c4c(C)ccc5[nH]ncc45)c(Cl)cc23)[C@@H](C)C1 [Compound I-83-2]
IC50 ([3]; class symbols): 100 to 1000 nM

C=CC(=O)N1CCN(c2c(C#N)c(=O)n(-c3c(C)ccnc3C(C)C)c3cc(-c4c(OC)ccc(Cl)c4F)c(Cl)cc23)[C@@H](C)C1 [Compound I-84-1]
IC50 [3, 5]: < 100 nM

C=CC(=O)N1CCN(c2c(C#N)c(=O)n(-c3c(C)ccnc3C(C)C)c3cc(-c4c(OC)ccc(Cl)c4F)c(Cl)cc23)[C@@H](C)C1 [Compound I-84-2]
IC50 ([3]; class symbols): 100 to 1000 nM

C=CC(=O)N1CCN(c2c(C#N)c(=O)n(-c3ccccc3Cl)c3cc(-c4c(OC)ccc(Cl)c4F)c(Cl)cc23)[C@@H](C)C1 [Compound I-85-1]
IC50 [3, 5]: 100 to 1000 nM

C=CC(=O)N1CCN(c2c(C#N)c(=O)n(-c3ccccc3Cl)c3cc(-c4c(OC)ccc(Cl)c4F)c(Cl)cc23)[C@@H](C)C1 [Compound I-85-2]
IC50 ([3]; class symbols): 100 to 1000 nM

C=CC(=O)N1CCN(c2c(C#N)c(=O)n(-c3c(C(C)C)ncnc3C(C)C)c3cc(-c4c(C)ccc5[nH]ncc45)c(Cl)cc23)[C@@H](C)C1 [Compound I-86-1]
IC50 [3, 5]: < 100 nM

C=CC(=O)N1CCN(c2c(C#N)c(=O)n(-c3c(C(C)C)ncnc3C(C)C)c3cc(-c4c(C)ccc5[nH]ncc45)c(Cl)cc23)[C@@H](C)C1 [Compound I-86-2]
IC50 ([3]; class symbols): 100 to 1000 nM

C=CC(=O)N1CCN(c2c(C#N)c(=O)n(-c3c(C(C)C)ncnc3C(C)C)c3cc(-c4c(OC)ccc(Cl)c4F)c(Cl)cc23)[C@@H](C)C1 [Compound I-87-1]
IC50 [3, 5]: < 100 nM

C=CC(=O)N1CCN(c2c(C#N)c(=O)n(-c3c(C(C)C)ncnc3C(C)C)c3cc(-c4c(OC)ccc(Cl)c4F)c(Cl)cc23)[C@@H](C)C1 [Compound I-87-2]
IC50 ([3]; class symbols): 100 to 1000 nM
